US20140271734A1, “BILE ACID RECYCLING INHIBITORS FOR TREATMENT OF BARRETT'S ESOPHAGUS AND GASTROESOPHAGEAL REFLUX DISEASE” (LUMENA PHARMACEUTICALS, INC., priority 2013, published 2014)
Where two headings read alike, the source gives them in different places.

Assay: Toxicokinetics of LUM001 free form, 13-week oral gavage toxicity study in rats
Format: in vivo
Settings: for AUC(0-t) / Cmax / Tmax: rat, plasma, oral; for AUC(0-t): read-out: AUC(0-24 h)
Procedure: Charles River CD IGS rats were assigned to treatment groups (9sex/toxicokinetic group) and were administered daily doses of 0, 5, 30, 75, and 150 mg/kg (males) or 0, 5, 30, 150, and 500 mg/kg (females). LUM001 was administered by once daily oral gavage in distilled water and fresh dosing solutions were prepared weekly. All animals were dosed with 10 mL/kg/day based on the most recently determined body weights. On Day 1 and during Week 12, approximately 1 mL of venous blood was collected in heparinized tubes from the retro-orbital venous plexus. Animals were anesthetized with CO2-O2 and blood samples were collected at 1, 2, 3, 5, 8, and 24 hours post-dose. Survival permitting, the first 3 animals/sex dose group were bled at 1 and 5 hours post-dose, the second 3 animals/sex/dose group were bled at 2 and 8 hours post-dose, and the last 3 animals/sex/dose group were bled at 3 and 24 hours post-dose. Blood collection tubes were kept on ice during the collection period after which they were centrifuged and the plasma was harvested within approximately 60 minutes of blood collection. Plasma samples were stored at approximately −20° C. or lower until analyzed.
The concentration of LUM001 free form in plasma were determined using an LCMSMS method. The assay sensitivity was 4.75 ng/mL. Means and standard errors of the means (SEM) were calculated for plasma concentrations at each time point. Mean values are significant to three figures and SEM values are significant to the same decimal place as the corresponding mean. Concentration values less than the assay sensitivity (4.75 ng LUM001 free form/mL) were reported as zero. The observed peak plasma concentrations (Cmax) of LUM001 free form, time to reach peak plasma concentration (Tmax) and areas under the plasma concentration-time curve (AUC0-24) were calculated by the TOXAUC computer program (1). For calculation purposes the 0 hr plasma concentrations were set to zero on Day 1 and to the concentrations at 24 hr post dose on Day 78. The TK parameters were calculated from mean data for each group of rats. The bioavailability (% BA) of LUM001 after oral administration of LUM001 was calculated according to the equation below:
% BA=[AUC oral (0-8)/AUC IV(0-8)/Dose oral/Dose IV]×100

[1] = both sexes, CD IGS, Day 1, 150 mg/kg, Comb
[2] = both sexes, Charles River CD IGS, Day 78, 30.0 mg/kg, Comb
[3] = both sexes, Charles River CD IGS, Day 78, 150 mg/kg, Comb
[4] = female, CD IGS, Day 1, 150 mg/kg, F
[5] = female, CD IGS, Day 1, 500 mg/kg, F
[6] = female, Charles River CD IGS, Day 78, 30.0 mg/kg, F
[7] = female, Charles River CD IGS, Day 78, 150 mg/kg, F
[8] = female, Charles River CD IGS, Day 78, 500 mg/kg, F
[9] = male, CD IGS, Day 1, 30.0 mg/kg, M
[10] = male, CD IGS, Day 1, 75.0 mg/kg, M
[11] = male, CD IGS, Day 1, 150 mg/kg, M
[12] = male, Charles River CD IGS, Day 78, 5.0 mg/kg, M
[13] = male, Charles River CD IGS, Day 78, 30.0 mg/kg, M
[14] = male, Charles River CD IGS, Day 78, 75.0 mg/kg, M
[15] = male, Charles River CD IGS, Day 78, 150 mg/kg, M

Which results are given for `CCCCC1(CCCC)CS(=O)(=O)c2ccc(N(C)C)cc2[C@@H](c2ccc(OCc3ccc(C[N+]45CCN(CC4)CC5)cc3)cc2)[C@H]1O` [LUM001]?
BA (Day 1, 5.0 mg/kg, F): <0.1%; BA (Day 1, 5.0 mg/kg, M): <0.1%; BA (Day 1, 30.0 mg/kg, F): <0.1%; BA (Day 1, 75.0 mg/kg, M): <0.1%; BA (Day 1, 150 mg/kg, Comb): <0.1%; BA (Day 1, 500 mg/kg, F): <0.1%; BA (Day 78, 5.0 mg/kg, F): <0.1%; BA (Day 78, 30.0 mg/kg, Comb): <0.1%; BA (Day 78, 75.0 mg/kg, M): <0.1%; BA (Day 78, 150 mg/kg, Comb): <0.1%; BA (Day 78, 500 mg/kg, F): <0.1%; AUC(0-t) (both sexes, CD IGS, 150 mg/kg, Day 1, 150 mg/kg, Comb): 101 ng·h/mL; Cmax [1]: 37.3 ng/mL; Tmax [1]: 2 h; AUC(0-t) (both sexes, Charles River CD IGS, 30 mg/kg, Day 78, 30.0 mg/kg, Comb): 11.7 ng·h/mL; AUC(0-t) (both sexes, Charles River CD IGS, 150 mg/kg, Day 78, 150 mg/kg, Comb): 132 ng·h/mL; Cmax [2]: 4.35 ng/mL; Tmax [2]: 3 h; Cmax [3]: 24.1 ng/mL; Tmax [3]: 1 h; AUC(0-t) (female, CD IGS, 150 mg/kg, Day 1, 150 mg/kg, F): 106 ng·h/mL; Cmax [4]: 42.4 ng/mL; Tmax [4]: 2 h; Cmax [5]: 9.99 ng/mL; Tmax [5]: 3 h; AUC(0-t) (female, Charles River CD IGS, 30 mg/kg, Day 78, 30.0 mg/kg, F): 12.4 ng·h/mL; AUC(0-t) (female, Charles River CD IGS, 150 mg/kg, Day 78, 150 mg/kg, F): 124 ng·h/mL; AUC(0-t) (female, Charles River CD IGS, 500 mg/kg, Day 1, 500 mg/kg, F): 90.8 ng·h/mL; AUC(0-t) (female, Charles River CD IGS, 500 mg/kg, Day 78, 500 mg/kg, F): 470 ng·h/mL; Cmax [6]: 3.95 ng/mL; Tmax [6]: 3 h; Cmax [7]: 22.2 ng/mL; Tmax [7]: 2 h; Cmax [8]: 62.9 ng/mL; Tmax [8]: 3 h; AUC(0-t) (male, CD IGS, 30 mg/kg, Day 1, 30.0 mg/kg, M): 15.1 ng·h/mL; AUC(0-t) (male, CD IGS, 75 mg/kg, Day 1, 75.0 mg/kg, M): 6.37 ng·h/mL; AUC(0-t) (male, CD IGS, 150 mg/kg, Day 1, 150 mg/kg, M): 96.3 ng·h/mL; Cmax [9]: 8.59 ng/mL; Tmax [9]: 2 h; Cmax [10]: 2.55 ng/mL; Tmax [10]: 5 h; Cmax [11]: 32.1 ng/mL; Tmax [11]: 3 h; AUC(0-t) (male, Charles River CD IGS, 5 mg/kg, Day 78, 5.0 mg/kg, M): 11.1 ng·h/mL; AUC(0-t) (male, Charles River CD IGS, 30 mg/kg, Day 78, 30.0 mg/kg, M): 11.4 ng·h/mL; AUC(0-t) (male, Charles River CD IGS, 75 mg/kg, Day 78, 75.0 mg/kg, M): 61.4 ng·h/mL; AUC(0-t) (male, Charles River CD IGS, 150 mg/kg, Day 78, 150 mg/kg, M): 141 ng·h/mL; Cmax [12]: 5.8 ng/mL; Tmax [12]: 2 h; Cmax [13]: 4.75 ng/mL; Tmax [13]: 3 h; Cmax [14]: 5.71 ng/mL; Tmax [14]: 8 h; Cmax [15]: 28.3 ng/mL; Tmax [15]: 1 h
